These results are taken from patent US20250152585A1, “PHARMACEUTICAL COMPOUND” (Duke Street Bio Limited, priority 2022, published 2025).

Read-outs that look alike come from different tables or passages of the source. Where only a bound is given, the exact number is not on record here.

Assay [1] addresses T1, N-terminally FLAG-tagged PARP2 (amino acids 1-583) (Homo sapiens, UniProt Q9UGN5).
T1 construct: N-terminally FLAG-tagged PARP2 (amino acids 1-583)
The experiment in a line: PARP2 probe displacement HTRF assay. The format is binding. The following applies: binned Kd, PARP2 probe displacement HTRF. The method, then: Data analysis was performed identical as for PARP1.
In general terms: TR-FRET usually uses a lanthanide donor and a delayed reading to cut background.

The target in assay [2] is T2, full length N-terminally FLAG-tagged PARP1 (Homo sapiens, UniProt P09874). The experiment in a line: PARP1 probe displacement HTRF assay. The following applies: for Selectivity: PARP1 over PARP2, ratio Kd (PARP2)/Kd (PARP1), probe displacement HTRF; for Kd: binned Kd, PARP1 probe displacement HTRF.
T2 sequence (P09874 whole entry): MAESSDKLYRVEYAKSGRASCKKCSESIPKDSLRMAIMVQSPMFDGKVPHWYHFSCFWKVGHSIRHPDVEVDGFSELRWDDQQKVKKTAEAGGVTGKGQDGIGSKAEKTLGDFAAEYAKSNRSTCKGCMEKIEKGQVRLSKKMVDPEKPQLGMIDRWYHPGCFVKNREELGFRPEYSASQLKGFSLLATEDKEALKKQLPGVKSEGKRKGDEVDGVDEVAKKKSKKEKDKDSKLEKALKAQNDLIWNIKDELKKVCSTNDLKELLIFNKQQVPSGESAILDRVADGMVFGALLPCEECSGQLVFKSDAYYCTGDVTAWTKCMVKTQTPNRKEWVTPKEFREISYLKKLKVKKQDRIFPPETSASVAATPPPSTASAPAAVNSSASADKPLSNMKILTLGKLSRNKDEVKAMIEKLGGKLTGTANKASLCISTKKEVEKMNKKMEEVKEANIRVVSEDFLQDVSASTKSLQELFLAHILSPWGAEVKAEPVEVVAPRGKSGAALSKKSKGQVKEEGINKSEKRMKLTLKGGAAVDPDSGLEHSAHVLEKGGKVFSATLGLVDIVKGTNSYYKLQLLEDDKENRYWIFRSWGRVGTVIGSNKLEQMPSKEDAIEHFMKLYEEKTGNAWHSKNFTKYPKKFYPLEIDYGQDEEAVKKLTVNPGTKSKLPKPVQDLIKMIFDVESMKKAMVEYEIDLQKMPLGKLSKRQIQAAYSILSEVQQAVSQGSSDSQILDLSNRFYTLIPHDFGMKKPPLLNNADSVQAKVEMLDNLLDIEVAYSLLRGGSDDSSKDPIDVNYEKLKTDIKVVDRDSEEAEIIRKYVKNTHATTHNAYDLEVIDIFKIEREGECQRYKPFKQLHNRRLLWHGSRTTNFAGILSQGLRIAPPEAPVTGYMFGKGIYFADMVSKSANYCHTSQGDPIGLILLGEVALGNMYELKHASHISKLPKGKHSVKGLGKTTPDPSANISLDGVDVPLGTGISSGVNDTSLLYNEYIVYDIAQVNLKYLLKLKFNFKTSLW
The target of assay [3] is T2, full length N-terminally FLAG-tagged PARP1. The experiment in a line: PARP1 biochemical DELFIA assay (auto-PARylation). Details: recombinant full length human N-terminally FLAG-tagged PARP1. The following applies: binned IC50, PARP1 biochemical DELFIA assay.

T1 sequence (Q9UGN5 whole entry, the tested form may be a part): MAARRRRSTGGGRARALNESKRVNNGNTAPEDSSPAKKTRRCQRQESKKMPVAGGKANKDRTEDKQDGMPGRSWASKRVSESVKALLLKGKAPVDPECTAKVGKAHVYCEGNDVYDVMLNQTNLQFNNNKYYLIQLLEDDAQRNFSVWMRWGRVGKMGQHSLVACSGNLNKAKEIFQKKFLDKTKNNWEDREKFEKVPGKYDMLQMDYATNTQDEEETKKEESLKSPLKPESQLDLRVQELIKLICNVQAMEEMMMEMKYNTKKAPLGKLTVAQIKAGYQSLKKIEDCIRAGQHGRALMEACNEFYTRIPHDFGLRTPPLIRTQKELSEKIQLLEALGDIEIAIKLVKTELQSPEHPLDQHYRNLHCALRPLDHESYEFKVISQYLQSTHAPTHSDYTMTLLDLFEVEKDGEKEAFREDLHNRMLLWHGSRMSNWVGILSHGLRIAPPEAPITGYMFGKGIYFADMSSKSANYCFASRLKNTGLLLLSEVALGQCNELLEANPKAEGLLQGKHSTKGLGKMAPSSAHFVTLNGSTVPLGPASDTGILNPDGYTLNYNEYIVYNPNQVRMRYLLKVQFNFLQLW

For `CNC(=O)c1ccc(N2CCC(N3CCC(c4nc5ccccc5c(=O)[nH]4)C3)CC2)c(C(F)(F)F)n1` (single isomer, unassigned) [Compound 139b], the Kd in assay [1] was 1000 to 10000 nM; in assay [2] (read-out: PARP1 HTRF) it was 10 to 100 nM. In assay [2], the Selectivity entry is reported as “+++ (+++ indicate a value of at least 100)”. In assay [3], the IC50 (usually the midpoint of a concentration-inhibition curve) lay within 10 to 100 nM.
Turning to `CNC(=O)c1ccc(N2CCC(N3CCC(O)(c4nc5ccccc5c(=O)[nH]4)C3)CC2)cn1` (single isomer, unassigned) [Compound 140a], the figures for the Kd in assay [1] and in assay [2] (read-out: PARP1 HTRF) were over 10000 nM and 10 to 100 nM, respectively. Moreover, in assay [2], the Selectivity result is “++ (++ indicates a value of 50 to less than 100)”. Also, the IC50 in assay [3] lay within 100 to 1000 nM.
In the same order, the values of `CNC(=O)c1ccc(N2CCC(N3CCC(O)(c4nc5ccccc5c(=O)[nH]4)C3)CC2)cn1` (single isomer, unassigned) [Compound 140b] are 1000 to 10000 nM, 10 to 100 nM, “+++ (+++ indicate a value of at least 100)” and 10 to 100 nM.
In the same order, the values of `CNC(=O)c1ccc(N2CC(N3CCCC(c4nc5ccccc5c(=O)[nH]4)CC3)C2)cn1` (single isomer, unassigned) [Compound 145a] are 1000 to 10000 nM, under 10 nM, “+++ (+++ indicate a value of at least 100)” and under 10 nM.
Taken in the same sequence, the figures for `CNC(=O)c1ccc(N2CC(N3CCCC(c4nc5ccccc5c(=O)[nH]4)CC3)C2)cn1` (single isomer, unassigned) [Compound 145b] were 1000 to 10000 nM, under 10 nM, “+++ (+++ indicate a value of at least 100)” and under 10 nM.
Turning to `CNC(=O)c1ccc(N2CCC(N3CCCC(c4nc5c(c(=O)[nH]4)CCCC5)C3)CC2)cn1` (single isomer, unassigned) [Compound 146a], the results for the Kd in assay [1] and in assay [2] (read-out: PARP1 HTRF) were 1000 to 10000 nM and 100 to 1000 nM, respectively. The Selectivity entry in assay [2] was “− (− indicates a value of less than 10)”. For the same compound, the IC50 in assay [3] was 100 to 1000 nM.
`CNC(=O)c1ccc(N2CCC(N3CCCC(c4nc5c(c(=O)[nH]4)CCCC5)C3)CC2)cn1` (single isomer, unassigned) [Compound 146b]: the Kd in assay [1] is over 10000 nM; in assay [2] (read-out: PARP1 HTRF) it was 10 to 100 nM. For the same compound, the Selectivity entry in assay [2] was “+++ (+++ indicate a value of at least 100)”. Further, the IC50 in assay [3] is 10 to 100 nM.
On to `CNC(=O)c1ccc(N2CCC(N3CCCC(c4ccc(OC)c(=O)[nH]4)C3)CC2)cn1` (single isomer, unassigned) [Compound 147a], for which the Kd was over 10000 nM in assay [1] and 1000 to 10000 nM in assay [2] (read-out: PARP1 HTRF). The Selectivity entry in assay [2] is on record as “− (− indicates a value of less than 10)”. Also, the IC50 in assay [3] was in the range of 1000 to 10000 nM.
Consider `CNC(=O)c1ccc(N2CCC(N3CCCC(c4ccc(OC)c(=O)[nH]4)C3)CC2)cn1` (single isomer, unassigned) [Compound 147b], for which the Kd is over 10000 nM in assay [1] and 1000 to 10000 nM in assay [2] (read-out: PARP1 HTRF). Moreover, the Selectivity entry in assay [2] is “− (− indicates a value of less than 10)”. For the same compound, the IC50 in assay [3] fell in the range of 1000 to 10000 nM.
Consider `CNC(=O)c1ccc(N2CCC(N3CCC(c4ccc(OC)c(=O)[nH]4)C3)CC2)cn1` (single isomer, unassigned) [Compound 148a], for which the Kd in assay [1] and in assay [2] (read-out: PARP1 HTRF) was over 10000 nM each time. Moreover, the Selectivity entry in assay [2] is “− (− indicates a value of less than 10)”. Also, the IC50 in assay [3] fell in the range of 1000 to 10000 nM.
Turning to `CNC(=O)c1ccc(N2CCC(N3CCC(c4ccc(OC)c(=O)[nH]4)C3)CC2)cn1` (single isomer, unassigned) [Compound 148b], the results for the Kd in assay [1] and in assay [2] (read-out: PARP1 HTRF) were over 10000 nM and 1000 to 10000 nM, respectively. The Selectivity entry in assay [2] is “− (− indicates a value of less than 10)”. Moreover, the IC50 in assay [3] was 1000 to 10000 nM.
On to `CNC(=O)c1ccc(N2CCC(N3CCC(c4nc5onc(C)c5c(=O)[nH]4)C3)CC2)cn1` (single isomer, unassigned) [Compound 149a], for which the Kd in assay [1] was over 10000 nM; in assay [2] (read-out: PARP1 HTRF), 100 to 1000 nM. Further, in assay [2], the Selectivity entry is on record as “+ (+ indicates a value of 10 to less than 50)”. For the same compound, the IC50 in assay [3] was in the range of 100 to 1000 nM.
Regarding `CNC(=O)c1ccc(N2CCC(N3CCC(c4nc5onc(C)c5c(=O)[nH]4)C3)CC2)cn1` (single isomer, unassigned) [Compound 149b], the results for the Kd in assay [1] and in assay [2] (read-out: PARP1 HTRF) were over 10000 nM and 1000 to 10000 nM, respectively. The Selectivity result in assay [2] is “− (− indicates a value of less than 10)”. Further, in assay [3], the IC50 fell in the range of 1000 to 10000 nM.
On to `CCc1ccc(C2CCN(C3CCN(c4ccc(C(=O)NC)nc4F)CC3)C2)[nH]c1=O` (single isomer, unassigned) [Compound 151b, 5-(4-(3-(5-ethyl-6-oxo-1,6-dihydropyridin-2-yl)pyrrolidin-1-yl)piperidin-1-yl)-6-fluoro-N-methylpicolinamide], for which the figures for the Kd in assay [1] and in assay [2] (read-out: PARP1 HTRF) were over 10000 nM and under 10 nM, respectively. Also, the Selectivity entry in assay [2] is listed as “+++ (+++ indicate a value of at least 100)”. Moreover, in assay [3], the IC50 is under 10 nM.
With `CNC(=O)c1ccc(N2CCC(N3CCC(c4ccc(OC)c(=O)[nH]4)C3)CC2)c(C(F)(F)F)n1` (single isomer, unassigned) [Compound 152a], the Kd in assay [1] is 1000 to 10000 nM; in assay [2] (read-out: PARP1 HTRF), under 10 nM. Further, in assay [2], the Selectivity result is reported as “+++ (+++ indicate a value of at least 100)”. In addition, the IC50 in assay [3] was under 10 nM.
With `CNC(=O)c1ccc(N2CCC(N3CCC(c4ccc(OC)c(=O)[nH]4)C3)CC2)c(C(F)(F)F)n1` (single isomer, unassigned) [Compound 152b], the Kd in assay [1] was over 10000 nM; in assay [2] (read-out: PARP1 HTRF), 10 to 100 nM. Further, in assay [2], the Selectivity result is “++ (++ indicates a value of 50 to less than 100)”. Moreover, the IC50 in assay [3] fell in the range of 10 to 100 nM.
Turning to `CNC(=O)c1ccc(N2CCC(N3CCC(c4cc5ccc(F)cc5c(=O)[nH]4)C3)CC2)cn1` (single isomer, unassigned) [Compound 154a, 5-(4-(3-(7-fluoro-1-oxo-1,2-dihydroisoquinolin-3-yl)pyrrolidin-1-yl)piperidin-1-yl)-N-methylpicolinamide], the Kd in assay [1] is 100 to 1000 nM; in assay [2] (PARP1 HTRF), under 10 nM. For the same compound, the Selectivity entry in assay [2] is listed as “+++ (+++ indicate a value of at least 100)”. In addition, in assay [3], the IC50 is under 10 nM.
As for `CNC(=O)c1ccc(N2CCC(N3CCC(c4nc5c(c(=O)[nH]4)CCCC5)C3)CC2)cn1` (single isomer, unassigned) [Compound 155a], the values for the Kd in assay [1] and in assay [2] (read-out: PARP1 HTRF) were 100 to 1000 nM and 10 to 100 nM, respectively. The Selectivity result in assay [2] was “+ (+ indicates a value of 10 to less than 50)”. Moreover, the IC50 in assay [3] is 10 to 100 nM.
With `CNC(=O)c1ccc(N2CCC(N3CCC(c4nc5c(c(=O)[nH]4)CCCC5)C3)CC2)cn1` (single isomer, unassigned) [Compound 155b], the Kd was 100 to 1000 nM in assay [1] and under 10 nM in assay [2] (read-out: PARP1 HTRF). The Selectivity result in assay [2] is “+++ (+++ indicate a value of at least 100)”. Also, the IC50 in assay [3] was under 10 nM.
For the compound `CNC(=O)c1ccc(N2CCC(N3CCC(c4nc5ccccc5c(=O)[nH]4)C3)CC2)c(C(F)F)n1` (single isomer, unassigned) [Compound 158a], the Kd in assay [1] is 1000 to 10000 nM; in assay [2] (read-out: PARP1 HTRF) it was under 10 nM. In addition, the Selectivity result in assay [2] is listed as “+++ (+++ indicate a value of at least 100)”. The IC50 in assay [3] is under 10 nM.
